We go through 36 compounds from patent US20210277003A1, “OGA INHIBITOR COMPOUNDS” (Janssen Pharmaceutica NV, priority 2018, published 2021).

For the experiment, the target named is T1, recombinant human Meningioma Expressed Antigen 5 (MGEA5), also referred to as O-GlcNAcase (OGA) (Homo sapiens, UniProt O60502).
T1 construct: Full length OGA enzyme was purchased at OnGene (cat #TP322411); purchased OnGene (so in the source)
T1 sequence (O60502 1-916): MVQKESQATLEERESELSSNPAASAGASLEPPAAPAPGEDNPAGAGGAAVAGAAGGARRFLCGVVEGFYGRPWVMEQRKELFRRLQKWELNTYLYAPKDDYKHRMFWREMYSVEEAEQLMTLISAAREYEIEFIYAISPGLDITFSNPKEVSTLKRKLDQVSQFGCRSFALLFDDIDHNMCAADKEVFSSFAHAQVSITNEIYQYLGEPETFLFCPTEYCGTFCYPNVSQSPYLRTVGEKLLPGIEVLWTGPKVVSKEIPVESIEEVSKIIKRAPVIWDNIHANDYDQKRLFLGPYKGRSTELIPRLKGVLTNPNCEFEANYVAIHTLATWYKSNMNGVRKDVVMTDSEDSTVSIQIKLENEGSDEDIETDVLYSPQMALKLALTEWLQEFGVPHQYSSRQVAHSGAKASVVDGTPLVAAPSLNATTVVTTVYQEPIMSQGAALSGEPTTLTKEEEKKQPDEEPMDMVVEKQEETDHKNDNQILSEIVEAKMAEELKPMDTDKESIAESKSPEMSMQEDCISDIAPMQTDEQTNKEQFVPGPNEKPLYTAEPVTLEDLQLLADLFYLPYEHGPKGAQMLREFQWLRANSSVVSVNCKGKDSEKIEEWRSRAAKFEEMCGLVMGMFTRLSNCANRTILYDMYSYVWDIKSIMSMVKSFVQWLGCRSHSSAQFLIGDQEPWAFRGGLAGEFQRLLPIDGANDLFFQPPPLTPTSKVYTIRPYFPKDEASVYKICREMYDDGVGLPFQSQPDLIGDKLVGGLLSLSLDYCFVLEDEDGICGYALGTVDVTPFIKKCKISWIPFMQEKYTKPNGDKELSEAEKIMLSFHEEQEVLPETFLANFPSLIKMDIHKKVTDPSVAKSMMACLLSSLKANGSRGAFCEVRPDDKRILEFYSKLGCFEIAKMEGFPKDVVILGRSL
The experiment can be described thus: OGA biochemical assay: inhibition of hydrolysis of fluorescein mono-ß-D-N-Acetyl-Glucosamine (FM-GlcNAc), fluorescence readout. Conditions: FM-GlcNAc substrate; for Emax: read-out: Enzymatic Emax (%); for IC50: read-out: Enzymatic hOGA, pIC50 (converted). From the text:
The assay is based on the inhibition of the hydrolysis of fluorescein mono-ß-D-N-Acetyl-Glucosamine (FM-GlcNAc) (Mariappa et al. 2015, Biochem J 470:255) by the recombinant human Meningioma Expressed Antigen 5 (MGEA5), also referred to as O-GlcNAcase (OGA). The hydrolysis FM-GlcNAc (Marker Gene technologies, cat #M1485) results in the formation of ß-D-N-glucosamineacetate and fluorescein. The fluorescence of the latter can be measured at excitation wavelength 485 nm and emission wavelength 538 nm. An increase in enzyme activity results in an increase in fluorescence signal. Full length OGA enzyme was purchased at OnGene (cat #TP322411). The enzyme was stored in 25 mM Tris.HCl, pH 7.3, 100 mM glycine, 10% glycerol at −20° C. Thiamet G and GlcNAcStatin were tested as reference compounds (Yuzwa et al. 2008 Nature Chemical Biology 4:483; Yuzwa et al. 2012 Nature Chemical Biology 8:393). The assay was performed in 200 mM Citrate/phosphate buffer supplemented with 0.005% Tween-20. 35.6 g Na2HPO4 2 H2O (Sigma, #C0759) were dissolved in 1 L water to obtain a 200 mM solution. 19.2 g citric acid (Merck, #1.06580) was dissolved in 1 L water to obtain a 100 mM solution. pH of the sodium phosphate solution was adjusted with the citric acid solution to 7.2. The buffer to stop the reaction consists of a 500 mM Carbonate buffer, pH 11.0. 734 mg FM-GlcNAc were dissolved in 5.48 mL DMSO to obtain a 250 mM solution and was stored at −20° C. OGA was used at a 2 nM concentration and FM-GlcNAc at a 100 uM final concentration. Dilutions were prepared in assay buffer. 50 nl of a compound dissolved in DMSO was dispensed on Black Proxiplate™ 384 Plus Assay plates (Perkin Elmer, #6008269) and 3 μl fl-OGA enzyme mix added subsequently. Plates were pre-incubated for 60 min at room temperature and then 2 μl FM-GlcNAc substrate mix added. […] Plates were briefly centrifuged for 1 min at 1000 rpm and incubate at room temperature for 6 h. To stop the reaction 5 μl STOP buffer were added and plates centrifuge again 1 min at 1000 rpm. Fluorescence was quantified in the Thermo Scientific Fluoroskan Ascent or the PerkinElmer EnVision with excitation wavelength 485 nm and emission wavelength 538 nm. For analysis a best-fit curve is fitted by a minimum sum of squares method. From this an IC50 value and Hill coefficient was obtained. High control (no inhibitor) and low control (saturating concentrations of standard inhibitor) were used to define the minimum and maximum values.

Take `Cc1ccnc(C)c1Nc1nccc2c1ccn2CC1CC1(F)F` (stereo not drawn) [Compound 2]: the maximal effect (Emax) came to 99% and the IC50 was 91.2 nM.

Turning to `CN(C)S(=O)(=O)Cn1ccc2c(Nc3c(Cl)cncc3Cl)nccc21` [Compound 3], the maximal effect (Emax) came to 92% and the IC50 is 933 nM.

`Cc1ccnc(C)c1Nc1nccc2c1ccn2CC1COC1` [Compound 4]: the “Enzymatic hOGA; pIC50” value came out at 6.03 and the Emax worked out at 93%.

Regarding `CCCCn1ccc2c(Nc3c(C)cnnc3C)nccc21` [Compound 17], the “Enzymatic hOGA; pIC50” value is on record as 6.94 and the maximal response (Emax) was 102%.

Turning to `CCCCn1ccc2c(Nc3c(C)cnc4c3OCCO4)nccc21` [Compound 20], the “Enzymatic hOGA; pIC50” value came to 7.4 and the Emax was determined as 102%.

Regarding `Cc1ccnc(C)c1Nc1nccc2c1ccn2CCC1CCO1` (stereo not drawn) [Compound 21], the “Enzymatic hOGA; pIC50” value amounted to 6.61 and the Emax stood at 96%.

With `Cc1ccnc(C)c1Nc1nccc2c1ccn2CC1(C)COC1` [Compound 22], the “Enzymatic hOGA; pIC50” value is recorded as 6.54 and the Emax was found to be 99%.

Regarding `COCCn1ccc2c(Nc3c(Cl)cncc3Cl)nccc21` [Compound 28], the Emax was determined as 83% and the IC50 was 2190 nM.

As to `Cc1cncc(C)c1Nc1nccc2c1ccn2CC1COC1` [Compound 29], the Emax is 88% and the IC50 is 1620 nM.

`Cc1cncc(Cl)c1Nc1nccc2c1ccn2CC1COC1` [Compound 30]: the maximum response (Emax) worked out at 93% and the IC50 was 1410 nM.

Consider `Cc1cncc(C(C)C)c1Nc1nccc2c1ccn2CC1COC1` [Compound 32], for which the maximum response (Emax) came out at 98% and the IC50 was 234 nM.

`CCCC(C)n1ccc2c(Nc3c(C)cncc3C)nccc21` (stereo not drawn) [Compound 33]: the Emax was 99% and the IC50 was 309 nM.

Consider `N#CCCCn1ccc2c(Nc3c(Cl)cncc3Cl)nccc21` [Compound 36], for which the Emax amounted to 100% and the IC50 was 275 nM.

In the case of `CCn1ccc2c(Nc3c(C)cc(F)cc3C)nccc21` [Compound 37], the maximal response (Emax) is 101% and the IC50 was 251 nM.

Consider `Cc1ccnc(C)c1Nc1nccc2c1ccn2CC(F)(F)F` [Compound 79], for which the Emax is 101% and the IC50 is 138 nM.

For the compound `CCC(O)Cn1ccc2c(Nc3c(C)ccnc3C)nccc21` (stereo not drawn) [Compound 93], the “Enzymatic hOGA; pIC50” value is listed as 7.44 and the Emax is 101%.

With `Cc1ccnc(C)c1Nc1nccc2c1ccn2CCC1CC1(F)F` (stereo not drawn) [Compound 94], the “Enzymatic hOGA; pIC50” value amounted to 6.86 and the maximal response (Emax) worked out at 99%.

For the compound `Clc1cccc(Cl)c1Nc1nccc2c1ccn2CCC1COC1` [Compound 98], the “Enzymatic hOGA; pIC50” value is 6.54 and the Emax was found to be 98%.

Consider `CCCCn1ccc2c(Nc3c(C)cc(N(C)C(C)=O)cc3C)nccc21` [Compound 102], for which the Emax was 99% and the IC50 was 229 nM.

For `Cc1ccnc(C)c1Nc1nccc2c1ccn2CCN1CC(F)(F)C1` [Compound 103], the “Enzymatic hOGA; pIC50” value is recorded as 6.12 and the maximal effect (Emax) was 99.7%.

Turning to `CCC(Cn1ccc2c(Nc3c(Cl)cc(F)cc3Cl)nccc21)OC` (stereo not drawn) [Compound 104], the “Enzymatic hOGA; pIC50” value was found to be 6.14 and the Emax amounted to 96.9%.

Turning to `CCC(C)(O)Cn1ccc2c(Nc3c(Cl)cc(F)cc3Cl)nccc21` (stereo not drawn) [Compound 106], the “Enzymatic hOGA; pIC50” value turned out to be 6.64 and the maximal effect (Emax) came to 103%.

On to `CCC(C)(F)Cn1ccc2c(Nc3c(C)ccnc3C)nccc21` (stereo not drawn) [Compound 108], for which the “Enzymatic hOGA; pIC50” value is recorded as 7.32 and the maximal effect (Emax) worked out at 102%.

In the case of `CCC(C)(F)Cn1ccc2c(Nc3c(Cl)cc(F)cc3Cl)nccc21` (stereo not drawn) [Compound 111], the “Enzymatic hOGA; pIC50” value amounted to 7.62 and the Emax is 102%.

On to `Cn1cnc(Cn2ccc3c(Nc4c(Cl)cc(F)cc4Cl)nccc32)c1` [Compound 120], for which the “Enzymatic hOGA; pIC50” value is recorded as 6.77 and the Emax was determined as 99.2%.

As for `Fc1cc(Cl)c(Nc2nccc3c2ccn3Cc2cocn2)c(Cl)c1` [Compound 121], the “Enzymatic hOGA; pIC50” value was 7.25 and the Emax was 103%.

`Fc1cc(Cl)c(Nc2nccc3c2ccn3Cc2cnco2)c(Cl)c1` [Compound 142]: the “Enzymatic hOGA; pIC50” value was found to be 6.56 and the maximal effect (Emax) is 99.2%.

Regarding `Cc1cnc(Cn2ccc3c(Nc4c(Cl)cc(F)cc4Cl)nccc32)o1` [Compound 143], the “Enzymatic hOGA; pIC50” value was 7.41 and the Emax was 100%.

In the case of `Fc1cnc(-n2ccc3c(Nc4c(Cl)cccc4Cl)nccc32)nc1` [Compound 164], the Emax stood at 101% and the IC50 was 37.2 nM.

`Cc1ccc(-n2ccc3c(Nc4c(Cl)cccc4Cl)nccc32)nc1` [Compound 165]: the maximum response (Emax) worked out at 101% and the IC50 is 38 nM.

As to `Cn1ccnc1Cn1ccc2c(Nc3c(Cl)cccc3Cl)nccc21` [Compound 168], the maximal response (Emax) is 98.1% and the IC50 was 562 nM.

With `N#Cc1cnc(-n2ccc3c(Nc4c(Cl)cc(F)cc4Cl)nccc32)[nH]1` [Compound 181], the maximum response (Emax) was 92.7% and the IC50 is 794 nM.

As for `Fc1cc(Cl)c(Nc2nccc3c2ccn3-c2ncco2)c(Cl)c1` [Compound 182], the Emax was 97.8% and the IC50 is 309 nM.

On to `Fc1cc(Cl)c(Nc2nccc3c2ccn3-c2c[nH]cn2)c(Cl)c1` [Compound 190], for which the Emax stood at 96.3% and the IC50 is 562 nM.

With `Clc1cccc(Cl)c1Nc1nccc2c1ccn2Cc1ncc[nH]1` [Compound 191], the maximal response (Emax) was determined as 98.8% and the IC50 is 229 nM.

As for `Cc1ncnc(C(C)C)c1Nc1nccc2c1ccn2CCC(F)(F)F` [Compound 192], the Emax is 98.3% and the IC50 is 182 nM.
